Data published in US5608084A, “Lactones with antioxidising and hypolipidaemic activity useful in the therapy of the atherosclerosis” (priority 1994, dated 1997).

Tested on: LDL
Test: Antioxidant activity: latency period of copper-induced LDL oxidation (TBARS method)
Assay type: biochemical, human
Conditions: for Latency period: LDL oxidized with 5 μM cupric sulfate at 37° C.; for concentration giving a comparable prolongation of the latency period, relative to probucol (times lower): compared with probucol; for antioxidant activity compared with probucol: latency period
Description: The determination of the melting point has been carried out by means of a capillary melting point apparatus Electrothermal, without any correction. The I.R. spectrum has been obtained by means of a Perkin-Elmer rood. 963/G spectrophotometer generally, when not otherwise specified, preparing the specimen in potassium bromide and recording the spectrum between […]. The ^1 H-NMR spectrum has been recorded at room temperature with a 200 MHz Varian Gemini spectrometer, in the solvents cited, by using tetramethylsilane as internal standard; the resonances of the signals have been expressed in p.p.m.. The ^13 C-NMR spectrum has been carried out at 50.3 MHz with a Varian Gemini 200 spectrometer by using tetramethylsilane as internal standard and as solvents those described in the experimental section. The mass spectrum has been recorded by using a VG 7070E mass spectrometer, at a 70 eV ionization voltage and with a 6 Kvolt acceleration voltage. The chromatographies on silica gel have been carried out by using 60 F254 silica gel ([…]--Merck) with the eluents cited in the examples, according to the method described by Clark Still W. et al. in J. Org. Chem., 43, 2923, (1978). The pharmacological activity of the lactones of formula I object of the present invention has been determined by means of a series of in vitro tests considered predictive of the antioxidant and hypolipidaemic properties. The antioxidant activity has been evaluated through the capability of some lactones of formula I to prevent and/or delay the oxidative modification of the lipoproteins (LDL), caused by a chemical method by incubating native LDL with cupric ions, according to the method described by Steinbrecher U. P. in J. Biol. Chem., 262, 3603-3608, (1987). The evaluation of the oxidation degree of the LDL through the monitoring of the concentration of aldehydes derived from the degradation of the lipidic peroxides and the observation of the modifications of the B-100 apolipoprotein represent the used experimental approach. The antioxidant activity of the lactones has been expressed in terms of duration of the latency period that represents a parameter of the resistance to the oxidation of the LDL. The LDL have been isolated from the human plasma obtained from blood collected, in the presence of EDTA, from healty volunteers fasting from 8 hours according to the method described by Havel H. in J. Clin. Invest., 34, 1345-1353, (1955). The solution, dialyzed in Visking-Serva dialysis tubes at 4° C. for 72 hours in phosphate buffer (PBS) added with EDTA (0.24 mM), has been filtered through a membrane with 0.45μ porosity (Millex HV Filters) and the proteic concentration has been determined according to the method described by Lowry O. et al. in J. Biol. Chem., 193, 265-275, (1951). The solution has been diluted with PBS-EDTA at a concentration of 500 μg protein/ml and the obtained LDL have been incubated at 42° C. for 45 minutes in presence of the lactones solubilized in ethanol (1.7 μl/ml LDL). At the end of the incubation the solutions have been placed on ice for 45 minutes and dialyzed at 4° C. for 36 hours in PBS. The oxidation of the LDL has been carried out with 5 μM cupric sulfate at 37° C. and stopped at the experimental times by cooling at 4° C. and adding 0.24 mM of EDTA. The solutions of LDL have been kept at 4° C. and sheltered from light during the experimental procedure. The oxidation degree of the LDL has been checked by spectrophotometric determination (λ=535 nm--Perkin Elmer spectrophotometer mod. Lambda 1) of the content of the aldehydes of degradation reactive to the thiobarbituric acid using as standard malondialdehyde (MDA), according to the TBARS method, described in Methods in Enzymology, vol. 52, (1978).
FIGS. 1A-1C show the results of spectrophotometric readings expressed as ng of MDA/mg LDL protein. […]

With `Cc1c(C)c2c(c(C)c1O)CCC(C)OC(=O)C(C)(C)CCCO2` (centres unmarked) [Example 3, 6,6,9,13,15,16-Hexamethyl-14-hydroxy-2,8-dioxabicyclo[10.4.0]hexadec-12,14,16-trien-7-one] the Latency period (1 μM) was 73 min, the Latency period (5 μM) was 120 min and the Latency period (10 μM) was > 180 min. The “concentration giving a comparable prolongation of the latency period, relative to probucol (times lower)” value was 10 times and the “antioxidant activity compared with probucol” value was “far higher than that of probucol”.
In the case of `CCC1CCc2c(C)c(O)c(C)c(C)c2OCCCC(C)(C)C(=O)O1` (centres unmarked) [Example 6, 9-Ethyl-14-hydroxy-6,6,13,15,16-pentamethyl-2,8-dioxabicyclo[10.4.0]hexadec-12,14,16-trien-7-one], the Latency period (1 μM) is reported as 95 min, the Latency period (5 μM) is reported as > 180 min and the Latency period (10 μM) is reported as > 180 min. For the same molecule, the “concentration giving a comparable prolongation of the latency period, relative to probucol (times lower)” value was 10 times and the “antioxidant activity compared with probucol” value was “far higher than that of probucol”.
`CC(C)(Sc1cc(C(C)(C)C)c(O)c(C(C)(C)C)c1)Sc1cc(C(C)(C)C)c(O)c(C(C)(C)C)c1` [Probucol, reference compound] showed a Latency period (10 μM) of 82 min.
